Values of other authors in patent US8685950B2, “Use of aromatase inhibitors for treatment of ectopic pregnancy” (Wayne State University, priority 2004, dated 2014).
Structures can show the parent of a compound that is named as a salt.

How the values were obtained:
progesterone production = details: baboon, early pregnancy
[1] = in vivo
[2] = baboons; effect reversed by diethylstilbestrol
ectopic pregnancy = ectopic pregnancy patients

For `C1=C(c2ccccc2)C(c2ccc(OCCN3CCCCC3)cc2)Oc2ccccc21` (stereo not drawn) [CDRI-85/287], the “amount of estrogen and progesterone receptors” value (primate endometrium) is listed as “decrease the amount of both receptors”.

For `CCN(CC)CCOc1ccc(C(O)(Cc2ccc(OC)cc2)c2ccccc2)cc1` (stereo not drawn) [MER-25], the plasma progesterone (progesterone production) is given as “depression in plasma progesterone”.

In the case of `CCC1(c2ccc(N)cc2)CCC(=O)NC1=O` (stereo not drawn) [aminoglutethimide], the “patients stopping the treatment because of side effects (lethargy, rashes, nausea, fever)” value [1] is given as 8-15%.

For `CCN(CC)CCOc1ccc(C(O)(Cc2ccc(OC)cc2)c2ccccc2)cc1` (stereo not drawn) [ethamoxytriphetol], the “placental progesterone formation and serum progesterone concentrations” value [2] is given as “decreased”.

In the case of `CN(Cc1cnc2nc(N)nc(N)c2n1)c1ccc(C(=O)N[C@@H](CCC(=O)O)C(=O)O)cc1` [methotrexate], the “period to resolution of the pregnancy” value (ectopic pregnancy) is given as “more than three weeks in most patients”.

For `COc1ccc(C2=C(C(=O)c3ccc(OCCN4CCCC4)cc3)c3ccccc3CC2)cc1` [trioxifene mesylate], the plasma progesterone (progesterone production) is listed as “no such effect was found”.
